Publication PMC9481570, “A small molecule antagonist of SMN disrupts the interaction between SMN and RNAP II” (Nature Communications, 2022)

Assays:
ZGPAT = target: T1, ZGPAT (Homo sapiens, UniProt Q8N5A5); assay: ITC binding to ZGPAT; settings: Fig. 1c
T1 construct: ZGPAT (aa 120–271); His (N, cleaved yes); made in house; host or cells: E. coli BL21 (DE3) Codon plus RIL
Source text: (§1) The coding DNA fragments of following Tudor domains were cloned into pET28-MHL vector: SMN (aa 82–147), UHRF1 (aa 126–285), SMNDC1 (aa 53–130), TDRD3 (aa 554–611), SND1 (aa 650–910), TDRD2 (aa 327–420), FXR1 (aa 2–132), PHF1 (aa 28–87), SGF29 (aa 115–293), JMJD2A (aa 897–1101), 53BP1 (aa 1483–1606), SETDB1 (aa 190–410), LBR (aa 1–67), ZGPAT (aa 120–271). The coding regions of chromodomain of CBX7 (aa 8–62), PWWP domain of DNMT3A (aa 275–417), WD40 repeats of WDR5 (aa 24–334) and CW domain of ZCWPW2 (aa 21–78) were also subcloned into pET28-MHL vector to generate N-terminally His-tagged fusion protein. The MBT repeats of L3MBTL1 (aa 200–522) and L3MBTL2 (aa 170–625) were subcloned into pET28GST-LIC vector to generate N-terminally GST-His-tagged fusion protein. All the plasmids were generated by ligase independent cloning (Vazyme Biotech, C112 or ABclonal Technology, RK21020). […] The molecular weight of all protein samples was measured by mass spectrometry.
(§2) For the ITC measurement, the concentrated proteins were diluted into 20 mM Tris-HCl, pH 7.5, 150 mM NaCl (ITC buffer); the lyophilized compounds were dissolved in the same buffer, and the pH value was adjusted by adding 2 M NaOH or 2 M HCl. […] Compound concentrations were calculated from the mass and the volume of the solvent. […]

SMN = target: T2, SMN (Homo sapiens, UniProt Q16637); assay: Biotin-Cmpd 1 pulldown from U2OS cell lysates and western blotting, SMN; assay type: binding; settings: U2OS cell lysate, 200 μM biotin-free competitor, 20 μM biotin-Cmpd 1
T2 construct: endogenous in cells; host or cells: U2OS
Method: U2OS cells were lysed in RIPA buffer (140 mM NaCl, 10 mM Tris-HCl, pH 7.6, 1% Triton, 0.1% sodium deoxycholate, 1 mM EDTA) containing protease inhibitors (Roche, 05892791001). The cell lysate was incubated with 20 μM biotin-Cmpd 1 overnight at 4 °C, then 30 μL streptavidin beads (Thermo Fisher, 20353) was added and incubated at 4 °C for 1 h. The beads were then washed with RIPA buffer for 3 times, 10 min/time and loading buffer was added and boiled for 5 min for elution. The eluted samples were separated by SDS-PAGE for western blotting (SMN monoclonal antibody, BD Transduction Laboratories, 610646, clone No. 8, dilution of 1:1000; TDRD3 rabbit monoclonal antibody, Cell signaling, 5492, clone No. 5492, dilution of 1:1000; SND1 polyclonal antibody, Bethyl, A302-883A, dilution of 1:2000; RFP polyclonal antibody, Abcam, ab62341, dilution of 1:1000; GFP monoclonal antibody, Santa Cruz Biotechnology, sc-9996, dilution of 1:1000; Streptavidin-Horseradish Peroxidase (HRP), Invitrogen, SA10001, dilution of 1:5000) as previously described[52],[53]. For the competition analysis, 200 μM biotin-free compound 1 or compound 15 was added at the same time when the biotin-Cmpd 1 was incubated with the cell lysates.

WDR5 (WD40) = target: T3, WDR5 (WD40) (Homo sapiens, UniProt P61964); assay: ITC binding to WD40 repeats of WDR5; settings: Fig. 1c
T3 construct: WDR5 (aa 24–334); His (N, cleaved yes); made in house; host or cells: E. coli BL21 (DE3) Codon plus RIL
Source text: as §1, §2

SMN_W102F = target: T4, SMN_W102F (Homo sapiens, UniProt Q16637, W102F); assay: ITC binding to SMN Tudor mutant W102F; settings: Fig. 3d
T4 construct: SMN (aa 82–147); His (N, cleaved yes); made in house; host or cells: E. coli BL21 (DE3) Codon plus RIL
Source text: as §1, §2

L3MBTL1 (MBT) = target: T5, L3MBTL1 (MBT) (Homo sapiens, UniProt Q9Y468); assay: ITC binding to MBT repeats of L3MBTL1
T5 construct: L3MBTL1 (aa 200–522); GST-His (N, cleaved yes); made in house; host or cells: E. coli BL21 (DE3) Codon plus RIL
Source text: as §1, §2

CBX7 (CD) = target: T6, CBX7 (CD) (Homo sapiens, UniProt O95931); assay: ITC binding to chromodomain of CBX7; settings: Fig. 1c
T6 construct: CBX7 (aa 8–62); His (N, cleaved yes); made in house; host or cells: E. coli BL21 (DE3) Codon plus RIL
Source text: as §1, §2

[1] = tested on: UHRF1_TTD aromatic cage residues mutated to alanine; assay: ITC binding to UHRF1 TTD aromatic cage mutants; settings: Supplementary Fig. 9e
Source text: as §1, §2

T5 sequence (Q9Y468 268-590): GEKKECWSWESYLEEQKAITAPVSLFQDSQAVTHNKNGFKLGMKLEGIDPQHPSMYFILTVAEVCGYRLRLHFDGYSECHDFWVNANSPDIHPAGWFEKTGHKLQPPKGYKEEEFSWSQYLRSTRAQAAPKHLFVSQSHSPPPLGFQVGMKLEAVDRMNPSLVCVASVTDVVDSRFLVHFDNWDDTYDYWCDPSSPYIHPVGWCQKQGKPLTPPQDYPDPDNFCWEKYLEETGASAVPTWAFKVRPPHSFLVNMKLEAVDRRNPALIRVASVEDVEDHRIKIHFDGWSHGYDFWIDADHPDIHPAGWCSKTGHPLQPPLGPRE
T1 sequence (Q8N5A5 120-271): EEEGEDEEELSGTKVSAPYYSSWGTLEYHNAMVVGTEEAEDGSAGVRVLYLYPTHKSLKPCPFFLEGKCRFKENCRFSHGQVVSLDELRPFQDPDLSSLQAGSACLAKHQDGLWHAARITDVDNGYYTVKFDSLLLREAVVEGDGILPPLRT
T2 sequence (Q16637 whole entry): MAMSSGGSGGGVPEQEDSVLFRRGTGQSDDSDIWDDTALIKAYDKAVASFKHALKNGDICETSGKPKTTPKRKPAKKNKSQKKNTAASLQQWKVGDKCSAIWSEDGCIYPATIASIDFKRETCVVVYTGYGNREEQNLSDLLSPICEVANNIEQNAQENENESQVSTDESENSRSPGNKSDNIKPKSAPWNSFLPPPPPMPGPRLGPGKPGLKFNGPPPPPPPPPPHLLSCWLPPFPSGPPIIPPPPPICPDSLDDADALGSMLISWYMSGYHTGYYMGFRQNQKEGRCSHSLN
T4 sequence (Q16637 82-147 W102F): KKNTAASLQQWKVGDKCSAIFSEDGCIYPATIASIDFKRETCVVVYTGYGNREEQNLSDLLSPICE
T6 sequence (O95931 8-62): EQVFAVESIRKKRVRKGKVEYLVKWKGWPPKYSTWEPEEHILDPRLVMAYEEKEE

Cn1c2c(c(=N)c3c1CCC3)CCC2 [Compound 1, 4-methyl-2,3,4,5,6,7-hexahydrodicyclopenta[b,e]pyridin-8(1H)-imine]
Kd (ZGPAT): > 244 µM
competition of the pulldown of SMN by biotin-Cmpd 1 (SMN): competed out
Kd (WDR5 (WD40)): > 244 µM
Kd (SMN_W102F): > 100 µM
Kd (L3MBTL1 (MBT); ITC, Fig. 1c): > 100 µM
ITC binding curve, MBT repeats of L3MBTL1 (in words) (L3MBTL1 (MBT); Supplementary Fig. 2f): Weak binding
Kd (CBX7 (CD)): > 244 µM
binding affinity to UHRF1_TTD aromatic cage alanine mutants [1]: not affected significantly
